# Experiments:
# [1] = symptoms associated with chronic nasal congestion, cited from earlier work
# [2] = cited from earlier work
# rhinoviruses = conditions: cited from earlier work
# Solubility = assay type: physicochemical
# [3] = cited from earlier work; remark: listed apart in the source
# [4] = system: secretions of natural tear components; conditions: preclinical testing; cited from earlier work
smiles,measurement,setting,value
Oc1cccc(Nc2ncc(F)c(Nc3cccc(O)c3)n2)c1 [Example R112],improvement from baseline measurements,[1]; baseline prior to drug initiation,up to 38%
same,absolute difference over placebo,[1],9%
same,relative improvement over placebo,[1],greater than 20%
C[C@@H]1C[C@H]2[C@@H]3CCC4=CC(=O)C=C[C@]4(C)[C@@]3(Cl)[C@@H](O)C[C@]2(C)[C@@]1(OC(=O)c1ccco1)C(=O)CCl [Mometasone Furoate],bioavailability,[2],not readily bioavailable
"Cc1cc(CCCOc2c(C)cc(-c3noc(C(F)(F)F)n3)cc2C)on1 [Pleconaril, 1,2,4-oxadiazole3-[3,5-Dimethyl-4-[3-(3-methyl-5-isoxazolyl)propoxy]phenyl]-5-(trifluoremethyl)]",activity against rhinoviruses,rhinoviruses,active
same,solubility in condensed phases of hydrofluorocarbons,"Solubility; certain condensed phases of hydrofluorocarbons, e.g. HFA 227",can be dissolved
same,solubility in certain glyceride oils,"Solubility; certain glyceride oils, e.g. Miglyol 812",can be dissolved
same,solubility in aqueous solvents,[3],insoluble
O=c1ccn([C@@H]2O[C@H](COP(=O)(O)OP(=O)(O)OP(=O)(O)OP(=O)(O)OC[C@H]3O[C@@H](n4ccc(=O)[nH]c4=O)[C@H](O)[C@@H]3O)[C@@H](O)[C@H]2O)c(=O)[nH]1 [diquafosol],secretions of natural tear components,[4],increased

# Source: patent US20070203104A1, “Pharmaceutical Formulations” (priority 2006, published 2007)
